Some test systems named below: NCI-H23; UACC-62; SK-MEL-5; U-251; MOLT-4; COLO 205; MCF7; CCRF-CEM; OVCAR-5; NCI-H522; PC-3; SK-MEL-2; MDA-N; BT-549; SNB-19; RPMI-8226; HL-60; HT-29; HCT-15; OVCAR-4.
Assay in all cases: inhibition of tumour cell growth, NCI panel, 48 h

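Dose response: 5 concentrations. Exposure: 48 h. Format: 96-well plates. Endpoint: linear interpolation; highest concentration if not reached. The concentration for 50% growth inhibition is given as GI50.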 The source made the active and inactive calls. Cut-off read from the data, not from the text of the source: active = GI50 up to about 1.1 µM and inactive = higher.

Turning to `Brc1ccc2c(-c3nc(-c4c[nH]c5ccccc45)cs3)c[nH]c2c1`, the GI50 with NCI-H23 was 24.9 µM (inactive); in the test on UACC-62 it was 27.5 µM (inactive); in the test on SK-MEL-5, 22.1 µM (inactive); in the test with U-251, 35.2 µM (inactive); in the test on MOLT-4 it was 26.7 µM (inactive); in the test with COLO 205, 19.4 µM (inactive). In addition, the GI50 is 28.8 µM (inactive) in the test on MCF7; 27.4 µM (inactive) in the test with CCRF-CEM; 31.9 µM (inactive) in the test with OVCAR-5; 48 µM (inactive) with NCI-H522; 30.8 µM (inactive) in the test on PC-3; > 61.2 µM (inactive) with SK-MEL-2. Moreover, the GI50 with MDA-N is 41.9 µM (inactive); in the test with BT-549, 34.8 µM (inactive); in the test with SNB-19 it was 41.9 µM (inactive); with RPMI-8226 it was 12.1 µM (inactive); in the test on HL-60, 63 µM (inactive); with HT-29, 38.6 µM (inactive). The GI50 in the test with HCT-15 was 16.8 µM; in the test with OVCAR-4, > 53.5 µM (inactive).
On to `C/C(=N\NC(=S)N1CCN(c2ccccn2)CC1)c1cccc2cccnc12`, for which the GI50 with NCI-H23 is 11.5 µM (inactive); with UACC-62 it was 3.53 µM (inactive); with SK-MEL-5, 2.46 µM (inactive); with U-251, 4.12 µM (inactive); with MOLT-4 it was 3.21 µM (inactive); with COLO 205, 3.02 µM (inactive). Also, the GI50 was 3.6 µM (inactive) in the test with MCF7; 2.18 µM (inactive) with CCRF-CEM; 4.9 µM (inactive) in the test on OVCAR-5; 2.28 µM (inactive) in the test on NCI-H522; 3.67 µM (inactive) in the test with PC-3; 2.51 µM (inactive) with SK-MEL-2. Also, the GI50 with MDA-N was 4.71 µM (inactive); in the test on BT-549, 14.3 µM (inactive); in the test on SNB-19 it was 5.78 µM (inactive); in the test on RPMI-8226, 2.29 µM (inactive); in the test on HL-60 it was 0.828 µM (active); in the test with HT-29, 3.61 µM (inactive). In addition, the values for the GI50 in the test with HCT-15 and in the test on OVCAR-4 were 3.68 µM and 4.03 µM (inactive), respectively.
Turning to `Cn1ccnc1Sc1ccc(/C=N/c2ccc3nc(SCC(=O)NC4CCCCC4)sc3c2)cc1[N+](=O)[O-]`, the GI50 in the test on NCI-H23 was 37.5 µM (inactive); in the test with UACC-62 it was 19.5 µM (inactive); in the test on SK-MEL-5, > 100 µM (inactive); with U-251, 8.09 µM (inactive); in the test on MOLT-4, > 100 µM (inactive); in the test with COLO 205, > 100 µM (inactive). The GI50 with MCF7 was > 100 µM (inactive); in the test with CCRF-CEM, > 100 µM (inactive); with OVCAR-5, > 100 µM (inactive); in the test on NCI-H522 it was 65.9 µM (inactive); with PC-3, > 100 µM (inactive); with SK-MEL-2 it was 18.6 µM (inactive). Further, the GI50 in the test with MDA-N was > 100 µM (inactive); with BT-549, 14.1 µM (inactive); in the test on SNB-19, 13.7 µM (inactive); in the test on RPMI-8226, > 100 µM (inactive); with HL-60 it was > 100 µM (inactive); in the test on HT-29, > 100 µM (inactive). The results for the GI50 in the test with HCT-15 and in the test with OVCAR-4 were over 100 µM and > 100 µM (inactive), respectively.
As to `CN(C)CCNC(=O)c1cnn(C)c1[N+](=O)[O-]`, the GI50 is 73.5 µM (inactive) in the test on NCI-H23; 52.4 µM (inactive) in the test with UACC-62; 44.5 µM (inactive) in the test on SK-MEL-5; > 100 µM (inactive) in the test on U-251; > 100 µM (inactive) in the test on MOLT-4; 21.6 µM (inactive) in the test on COLO 205. The GI50 in the test on MCF7 is 63.4 µM (inactive); in the test on CCRF-CEM, > 100 µM (inactive); with OVCAR-5, > 100 µM (inactive); with NCI-H522 it was > 100 µM (inactive); in the test with PC-3, 36.1 µM (inactive); in the test on SK-MEL-2 it was > 100 µM (inactive). Also, the GI50 in the test on MDA-N is 41.6 µM (inactive); with BT-549 it was > 100 µM (inactive); in the test on SNB-19 it was > 100 µM (inactive); in the test on RPMI-8226, > 100 µM (inactive); in the test on HL-60, 35.2 µM (inactive); in the test with HT-29 it was 33.4 µM (inactive). The GI50 in the test with HCT-15 is over 100 µM; with OVCAR-4, 76.7 µM (inactive).
As for `Cc1ccc(C2=CC(=O)OC(C[P+](c3ccccc3)(c3ccccc3)c3ccccc3)(c3ccccc3)O2)cc1` (stereo not given), the GI50 in the test with NCI-H23 was 13.6 µM (inactive); with UACC-62, 14.8 µM (inactive); in the test with SK-MEL-5, 15.4 µM (inactive); with U-251, 17.9 µM (inactive); with MOLT-4, 21.3 µM (inactive); in the test with COLO 205, 14.3 µM (inactive). Moreover, the GI50 is 21.1 µM (inactive) with MCF7; 16.8 µM (inactive) with CCRF-CEM; 23.2 µM (inactive) in the test with OVCAR-5; 12 µM (inactive) in the test with NCI-H522; 23.1 µM (inactive) with PC-3; 15.2 µM (inactive) with SK-MEL-2. In addition, the GI50 in the test on MDA-N is 14.7 µM (inactive); with BT-549, 26.7 µM (inactive); with SNB-19, 17 µM (inactive); in the test on RPMI-8226, 17.5 µM (inactive); in the test on HL-60 it was 20.1 µM (inactive); in the test with HT-29 it was 14.7 µM (inactive). Also, the values for the GI50 with HCT-15 and in the test on OVCAR-4 were 20 µM and 16.4 µM (inactive), respectively.
On to `CC(=O)NS(=O)(=O)c1ccc(NCc2cccc3c(=O)c4ccc(Cl)cc4oc23)cc1`, for which the GI50 was 33 µM (inactive) in the test with NCI-H23; 48 µM (inactive) in the test with UACC-62; 40.1 µM (inactive) with SK-MEL-5; 31.6 µM (inactive) in the test on U-251; 11.5 µM (inactive) in the test on MOLT-4; > 57.7 µM (inactive) in the test on COLO 205. Also, the GI50 in the test on MCF7 is 8.3 µM (inactive); with CCRF-CEM it was 4.2 µM (inactive); in the test on OVCAR-5 it was > 100 µM (inactive); with NCI-H522 it was 27.4 µM (inactive); in the test on PC-3, 38.5 µM (inactive); in the test on SK-MEL-2 it was 46 µM (inactive). Besides, the GI50 in the test with MDA-N is 42.6 µM (inactive); with BT-549, > 54.2 µM (inactive); in the test on SNB-19, 57.3 µM (inactive); with RPMI-8226, 11.2 µM (inactive); in the test on HL-60, 1.44 µM (inactive); in the test with HT-29, 31.8 µM (inactive). Further, the figures for the GI50 in the test on HCT-15 and in the test on OVCAR-4 were 7.76 µM and > 54.5 µM (inactive), respectively.
For `O=C1c2ccccc2C(=O)N1NC1=NCCN1`, the GI50 in the test with NCI-H23, with UACC-62, in the test on SK-MEL-5, with U-251, with MOLT-4 and with COLO 205 was > 100 µM (inactive) each time. Besides, the GI50 in the test on MCF7, in the test with CCRF-CEM, in the test on OVCAR-5, with NCI-H522, in the test on PC-3 and in the test on SK-MEL-2 was > 100 µM (inactive) each time. Also, the GI50 in the test with MDA-N, with BT-549, in the test with SNB-19, in the test on RPMI-8226, in the test on HL-60 and in the test with HT-29 was > 100 µM (inactive) throughout. The GI50 with HCT-15 is over 100 µM; with OVCAR-4, > 100 µM (inactive).

The values are drawn from ChEMBL document CHEMBL1201862, “PubChem BioAssay data set” (2004).
